The values that follow come from patent US20170253601A1, “Substituted Pyrrolidine Compounds” (EPIZYME, INC., priority 2014, published 2017).

For the first experiment, the target named is T1, SMYD2 (Homo sapiens, UniProt Q9NRG4).
T1 construct: Full length SMYD2 (NP 064582.2) was cloned; His6 (N, cleaved yes); FLAG (N); made in house; host or cells: Sf9 insect cells
T1 sequence (Q9NRG4 whole entry): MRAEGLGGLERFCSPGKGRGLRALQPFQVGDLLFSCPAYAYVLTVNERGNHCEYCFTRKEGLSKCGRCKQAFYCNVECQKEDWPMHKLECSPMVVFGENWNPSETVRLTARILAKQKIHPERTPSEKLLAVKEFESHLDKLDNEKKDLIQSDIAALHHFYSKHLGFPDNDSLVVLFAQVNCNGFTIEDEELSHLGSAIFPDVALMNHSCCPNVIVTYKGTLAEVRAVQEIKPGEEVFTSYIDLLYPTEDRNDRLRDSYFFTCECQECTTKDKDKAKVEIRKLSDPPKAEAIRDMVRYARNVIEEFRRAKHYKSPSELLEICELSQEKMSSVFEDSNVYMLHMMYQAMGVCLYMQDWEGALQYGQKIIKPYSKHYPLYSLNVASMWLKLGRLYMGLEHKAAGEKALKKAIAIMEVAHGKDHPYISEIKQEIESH
The experiment can be described thus: SMYD2 Biochemical Assay (3H-SAM, biotinylated peptide substrate, Flashplate). The note with it: IC50 values are an average of n = 1 to n = 50; read-out: SMYD2 Biochem IC50 (μM)*. The procedure, abridged:
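Full-length His/FLAG-tagged SMYD2 expressed in Sf9 cells with tag cleaved, 1.5 nM, pre-incubated 30 min at room temperature with compound, then 10 nM 3H-SAM and 60 nM biotinylated peptide added. Buffer 20 mM Bicine pH 7.6, 1 mM TCEP, 0.005% BSG, 0.002% Tween20, 2% DMSO. Stopped with 600 uM cold SAM; 3H-peptide captured on streptavidin Flashplate; IC50 by curve fit.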
For `CO[C@H]1CN(C)C[C@H]1NC(=O)c1cc(C2CC2)on1` (racemic) [compound 123, (±)-cis-5-cyclopropyl-N-(4-methoxy-1-methylpyrrolidin-3-yl)-1,2-oxazole-3-carboxamide], the IC50 is 49.8 µM.
Consider `CC(C)c1cc(C(=O)N[C@@H]2C[C@@H](CNC(=O)C3CCCCC3)N(C3CC3)C2)no1` (stereo in doubt) [compound 243, (±)-trans-N-[5-[(cyclo-hexylformamido)methyl]-1-cyclopropylpyrrolidin-3-yl]-5-(propan-2-yl)-1,2-oxazole-3-carboxamide], for which the IC50 is greater than 50 µM.
Same read-out and setting: the same measure for `C[C@H]1CN(Cc2cccc3cccnc23)C[C@H]1NC(=O)c1cc(C2CC2)on1` (racemic) [compound 266, (±)-cis-5-cyclopropyl-N-[4-methyl-1-(quinolin-8-ylmethyl)pyrrolidin-3-yl]-1,2-oxazole-3-carboxamide]: 12.3 µM.
On the same count and under the same terms, with `CCOC(=O)C1CC1CN1C[C@H](C)[C@H](NC(=O)c2cc(C3CC3)on2)C1` (stereo in doubt) [compound 176, cis-ethyl 2-{[3-(5-cyclopropyl-1,2-oxazole-3-amido)-4-methylpyrrolidin-1-yl]methyl}cyclopropane-1-carboxylate] the figure was 5.28 µM.
On the same count and under the same terms, with `CCOC(=O)C(C)CN1C[C@H](C)[C@H](NC(=O)c2cc(C3CC3)on2)C1` (relative stereo) [compound 186, cis-ethyl 3-[3-(5-cyclopropyl-1,2-oxazole-3-amido)-4-methylpyrrolidin-1-yl]-2-methylpropanoate] the figure was 20.8 µM; with `Cc1nc[nH]c1CN1C[C@@H](C)[C@H](NC(=O)c2cc(C3CC3)on2)C1` (racemic) [compound 173, (±)-trans-5-cyclopropyl-N-[4-methyl-1-[(4-methyl-1H-imidazol-5-yl)methyl]pyrrolidin-3-yl]-1,2-oxazole-3-carboxamide], greater than 50 µM; with `C[C@@H]1CN(c2cccc(Cl)c2)C[C@H]1NC(=O)c1cc(C2CC2)on1` (racemic) [compound 297, (±)-trans-N-[1-(3-chloro-phenyl)-4-methyl-pyrrolidin-3-yl]-5-cyclopropyl-1,2-oxazole-3-carboxamide], greater than 50 µM.
Take `CC(C)C[C@H]1CN(C(C)C)C[C@@H]1NC(=O)c1cc(C2CC2)on1` (racemic) [compound 154, (±)-trans-5-cyclopropyl-N-[4-(2-methylpropyl)-1-(propan-2-yl)pyrrolidin-3-yl]-1,2-oxazole-3-carboxamide]: the IC50 was greater than 50 µM.
On the same count and under the same terms, the same measure for `C[C@H]1CN(Cc2ncc[nH]2)C[C@H]1NC(=O)c1cc(C2CC2)on1` (racemic) [compound 327, (±)-cis-5-cyclopropyl-N-[1-(1H-imidazol-2-ylmethyl)-4-methyl-pyrrolidin-3-yl]-1,2-oxazole-3-carboxamide]: 49.7 µM.
Turning to `CC(C)N1C[C@H](C)[C@H](NC(=O)c2cc(C(F)(F)F)on2)C1` (racemic) [compound 348, (±)-cis-N-[4-methyl-1-(propan-2-yl)pyrrolidin-3-yl]-5-(trifluoromethyl)-1,2-oxazole-3-carboxamide], the IC50 came to 6.68 µM.
Turning to `CC(C)N1C[C@H](C)[C@H](NC(=O)c2cc(C3CNC3)on2)C1` (racemic) [compound 342, (±)-cis-5-(azetidin-3-yl)-N-[4-methyl-1-(propan-2-yl)pyrrolidin-3-yl]-1,2-oxazole-3-carboxamide], the IC50 was greater than 50 µM.
Still for that read-out and setting: the same measure for `C[C@@H]1CN(CC(F)F)C[C@H]1NC(=O)c1cc(C2CC2)on1` (racemic) [compound 215, (±)-trans-5-cyclopropyl-N-[1-(2,2-difluoro-ethyl)-4-methylpyrrolidin-3-yl]-1,2-oxazole-3-carboxamide]: greater than 50 µM; for `C[C@H]1CN(c2ccncn2)C[C@H]1NC(=O)c1cc(C2CC2)on1` (racemic) [compound 340, (±)-cis-5-cyclopropyl-N-[4-methyl-1-(pyrimidin-4-yl)pyrrolidin-3-yl]-1,2-oxazole-3-carboxamide]: greater than 50 µM; for `C[C@H]1CN(c2ccnc(N)n2)C[C@H]1NC(=O)c1cc(C2CC2)on1` (racemic) [compound 334, (±)-cis-N-[1-(2-amino-pyrimidin-4-yl)-4-methylpyrrolidin-3-yl]-5-cyclopropyl-1,2-oxazole-3-carboxamide]: greater than 50 µM.
Same read-out and setting: with `C[C@H]1CN(Cc2cccc3c2OCO3)C[C@H]1NC(=O)c1cc(C2CC2)on1` (racemic) [compound 331, (±)-cis-N-[1-(2H-1,3-benzodioxol-4-ylmethyl)-4-methyl-pyrrolidin-3-yl]-5-cyclopropyl-1,2-oxazole-3-carboxamide] the figure was 3.57 µM.
The same measure, in the same setting: with `CN1C[C@H](NC(=O)c2cc(C3CC3)on2)[C@@H](C2CC2)C1` (racemic) [compound 141, (±)-trans-5-cyclopropyl-N-[4-cyclopropyl-1-methylpyrrolidin-3-yl]-1,2-oxazole-3-carboxamide] the figure was greater than 50 µM; with `COc1ncc(CN2C[C@@H](C)[C@H](NC(=O)c3cc(C4CC4)on3)C2)cc1Br` (racemic) [compound 174, (±)-trans-N-[1-[(5-bromo-6-methoxypyridin-3-yl)methyl]-4-methylpyrrolidin-3-yl]-5-cyclopropyl-1,2-oxazole-3-carboxamide], greater than 50 µM; with `C[C@H]1CN(Cc2c[nH]c(-c3ccccc3)n2)C[C@H]1NC(=O)c1cc(C2CC2)on1` (racemic) [compound 288, (±)-cis-5-cyclopropyl-N-{4-methyl-1-[(2-phenyl-1H-imidazol-4-yl)methyl]pyrrolidin-3-yl}-1,2-oxazole-3-carboxamide], 21.1 µM.
As to `C[C@@H]1CN(C2CCS(=O)(=O)CC2)C[C@H]1NC(=O)c1cc(C2CC2)on1` (racemic) [compound 225, (±)-trans-5-cyclopropyl-N-[1-(1,1-dioxo-1??- thian-4-yl)-4-methyl-pyrrolidin-3-yl]-1,2-oxazole-3-carboxamide], the IC50 was greater than 50 µM.
Still for that read-out and setting: the same measure for `CC(C)N1C[C@H](C)[C@H](NC(=O)c2cc(C(F)F)on2)C1` (racemic) [compound 300, (±)-cis-5-(difluoro-methyl)-N-[4-methyl-1-(propan-2-yl)pyrrolidin-3-yl]-1,2-oxazole-3-carboxamide]: 9.59 µM; for `C[C@@H]1CN(Cc2ncc[nH]2)C[C@H]1NC(=O)c1cc(C2CC2)on1` (racemic) [compound 139, (±)-trans-5-cyclopropyl-N-[1-(1H-imidazol-2-ylmethyl)-4-methylpyrrolidin-3-yl]-1,2-oxazole-3-carboxamide]: greater than 50 µM; for `CC(C)N1C[C@@H](C)[C@H](NC(=O)c2cc(C(F)F)on2)C1` (racemic) [compound 281, (±)-trans-5-(difluoro-methyl)-N-[4-methyl-1-(propan-2-yl)pyrrolidin-3-yl]-1,2-oxazole-3-carboxamide]: greater than 50 µM.
Still for that read-out and setting: with `C[C@H]1CN(Cc2ccsc2)C[C@H]1NC(=O)c1cc(C2CC2)on1` (racemic) [compound 283, (±)-cis-5-cyclopropyl-N-[4-methyl-1-(thiophen-3-ylmethyl)pyrrolidin-3-yl]-1,2-oxazole-3-carboxamide] the figure was 1.85 µM.

The experiment is the same for the next values; noted with them: Table 1; average of n = 1 to n = 50; read-out: SMYD2 Biochem IC50.
With `O=C(N[C@@H]1CN(C2CC2)C[C@H]1O)c1cc(C2CC2)on1` (racemic) [compound 47, (±)-trans-5-cyclopropyl-N-(1-cyclopropyl-4-hydroxypyrrolidin-3-yl)isoxazole-3-carboxamide], the IC50 is greater than 50 µM.

The same experiment, now with this note: Table 2; average of n = 1 to n = 50; read-out: SMYD2 Biochem IC50.
Take `C[C@H]1CN(C(=O)CC2CCNCC2)C[C@@H]1NC(=O)c1cc(C2CC2)on1` (racemic) [compound 95, (±)-trans-5-cyclopropyl-N-(4-methyl-1-(2-(piperidin-4-yl)acetyl)pyrrolidin-3-yl)isoxazole-3-carboxamide]: the half-maximal inhibitory concentration (IC50) was greater than 50 µM.
On the same count and under the same terms, with `C[C@@H]1CN(CCN)C[C@H]1NC(=O)c1cc(C2CC2)on1` (racemic) [compound 101, (±)-trans-N-(1-(2-aminoethyl)-4-methylpyrrolidin-3-yl)-5-cyclopropylisoxazole-3-carboxamide] the figure was greater than 50 µM.
On the same count and under the same terms, the same measure for `C[C@H]1CN(C(=O)C2CCNCC2)C[C@H]1NC(=O)c1cc(C2CC2)on1` (racemic) [compound 70, (±)-cis-5-cyclopropyl-N-(4-methyl-1-(piperidine-4-carbonyl)pyrrolidin-3-yl)isoxazole-3-carboxamide]: greater than 50 µM; for `C[C@@H]1CN(C2CCNCC2)C[C@H]1NC(=O)c1cc(C2CC2)on1` (racemic) [compound 104, (±)-trans-5-cyclopropyl-N-((3S,4R)-4-methyl-1-(piperidin-4-yl)pyrrolidin-3-yl)isoxazole-3-carboxamide]: greater than 50 µM; for `CC(=O)N1C[C@H](C)[C@H](NC(=O)c2cc(C3CC3)on2)C1` (racemic) [compound 111, (±)-cis-N-(1-acetyl-4-methylpyrrolidin-3-yl)-5-cyclopropylisoxazole-3-carboxamide]: greater than 50 µM.
The same measure, in the same setting: with `CC(=O)N1CCC(N2C[C@@H](C)[C@@H](NC(=O)c3cc(C4CC4)on3)C2)CC1` (racemic) [compound 83, (±)-cis-N-(1-(1-acetylpiperidin-4-yl)-4-methylpyrrolidin-3-yl)-5-cyclopropylisoxazole-3-carboxamide] the figure was greater than 50 µM; with `C[C@@H]1CN(C(=O)C2CCNCC2)C[C@H]1NC(=O)c1cc(C2CC2)on1` (racemic) [compound 94, (±)-trans-5-cyclopropyl-N-(4-methyl-1-(piperidine-4-carbonyl)pyrrolidin-3-yl)isoxazole-3-carboxamide], greater than 50 µM.
